Assay results taken from patent EP0942911B1, “BENZOPYRANOPYRROLE AND BENZOPYRANOPYRIDINE ALPHA-1 ADRENERGIC COMPOUNDS” (Abbott Laboratories, priority 1996, dated 1998).
Structures can show the parent of a compound that is named as a salt.

Assays:
Assay in all cases: biochemical
[1] = molecular target: T1, α-1A adrenoreceptor (rat submaxillary gland) (Rattus norvegicus, UniProt P43140); format: binding; details: [3H]-prazosin radioligand; rat submaxillary gland membranes; read-out: Radioligand Binding (Ki, nM) 1A (Rat)
T1 sequence (P43140 1-466): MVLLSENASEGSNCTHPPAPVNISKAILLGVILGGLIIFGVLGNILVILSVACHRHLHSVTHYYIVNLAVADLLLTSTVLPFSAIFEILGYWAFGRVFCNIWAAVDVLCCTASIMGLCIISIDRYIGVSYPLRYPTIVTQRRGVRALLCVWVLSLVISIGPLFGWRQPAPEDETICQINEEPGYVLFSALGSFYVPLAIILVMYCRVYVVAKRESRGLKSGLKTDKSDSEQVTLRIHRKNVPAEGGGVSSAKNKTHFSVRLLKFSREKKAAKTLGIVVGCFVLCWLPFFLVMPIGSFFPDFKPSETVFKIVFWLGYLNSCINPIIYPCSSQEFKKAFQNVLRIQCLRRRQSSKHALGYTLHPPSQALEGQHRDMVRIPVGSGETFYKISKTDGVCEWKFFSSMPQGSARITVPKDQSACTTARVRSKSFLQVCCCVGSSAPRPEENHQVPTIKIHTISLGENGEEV
Summary of the method: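 Radioligand binding to α-1A sites in membrane homogenates of rat submaxillary gland, run after Greengrass and Bremner. Bound radioactivity counted by liquid scintillation.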

α-1a adrenoreceptor = molecular target: T2, α-1a adrenoreceptor (Bos taurus, UniProt P18130); format: binding, bovine; details: [3H]-prazosin radioligand; cloned receptor in LTK cell membranes; read-out: Radioligand Binding (Ki, nM) 1a (Bovine)
T2 sequence (P18130 1-466): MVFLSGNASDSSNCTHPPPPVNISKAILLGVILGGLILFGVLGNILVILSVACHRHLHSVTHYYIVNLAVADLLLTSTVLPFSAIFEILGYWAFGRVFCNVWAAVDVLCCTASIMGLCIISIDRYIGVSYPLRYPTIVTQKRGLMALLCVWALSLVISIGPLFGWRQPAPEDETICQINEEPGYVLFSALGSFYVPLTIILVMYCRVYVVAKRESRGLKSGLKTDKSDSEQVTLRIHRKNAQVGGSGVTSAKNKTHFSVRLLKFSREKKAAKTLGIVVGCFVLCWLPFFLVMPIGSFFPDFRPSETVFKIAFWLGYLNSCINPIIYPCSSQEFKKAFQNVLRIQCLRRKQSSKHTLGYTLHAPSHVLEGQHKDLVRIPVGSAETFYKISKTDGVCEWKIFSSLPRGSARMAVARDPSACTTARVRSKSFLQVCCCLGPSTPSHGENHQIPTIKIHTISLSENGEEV
Summary of the method: (§1)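 Affinities are from radioligand binding on membranes of mouse LTK fibroblast clones stably expressing each cloned α-1 subtype; rat submaxillary gland served as native α-1A tissue.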

α-1b adrenoreceptor = molecular target: T3, α-1b adrenoreceptor (Mesocricetus auratus, UniProt P18841); format: binding, hamster; details: [3H]-prazosin radioligand; cloned receptor in LTK cell membranes; read-out: Radioligand Binding (Ki, nM) 1b (Hamster)
T3 sequence (P18841 1-515): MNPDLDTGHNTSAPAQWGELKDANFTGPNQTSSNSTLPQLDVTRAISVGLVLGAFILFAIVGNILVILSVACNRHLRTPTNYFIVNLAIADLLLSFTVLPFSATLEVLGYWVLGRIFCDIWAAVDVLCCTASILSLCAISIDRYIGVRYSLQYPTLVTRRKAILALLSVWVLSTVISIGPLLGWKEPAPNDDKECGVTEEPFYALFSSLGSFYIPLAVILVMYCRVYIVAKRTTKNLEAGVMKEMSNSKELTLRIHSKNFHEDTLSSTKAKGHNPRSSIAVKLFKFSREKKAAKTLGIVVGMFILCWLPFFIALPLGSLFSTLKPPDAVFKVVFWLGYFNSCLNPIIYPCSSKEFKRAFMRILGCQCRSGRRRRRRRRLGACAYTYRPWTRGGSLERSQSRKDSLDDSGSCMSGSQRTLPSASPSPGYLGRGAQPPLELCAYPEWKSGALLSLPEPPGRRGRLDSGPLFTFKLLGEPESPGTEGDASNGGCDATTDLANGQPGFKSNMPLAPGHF
Summary of the method: as §1

For `COc1cccc2c1[C@@H]1CN(CCCCn3c(=O)[nH]c4c(sc5cccnc54)c3=O)C[C@H]1CO2` [Example 3, 3-[4-((3aS,9bR)-trans-9-Methoxy-1,2,3,3a,4,9b-hexahydro-[1]-benzopyrano[3,4-c]pyrrol-2-yl)butyl]-pyrido[2',3':4,5]thieno[3,2-d]pyrimidine-2,4(1H,3H)-dione hydrochloride], the Ki [1] was 0.026 nM, the Ki (α-1a adrenoreceptor) was 0.02 nM and the Ki (α-1b adrenoreceptor) was 0.286 nM.
Work on `COc1cccc2c1[C@@H]1CN(CCCCn3c(=O)[nH]c4c(sc5ccc(Cl)nc54)c3=O)C[C@@H]1CO2` [Example 37, 3-[4-((3aR,9bR)-cis-9-Methoxy-1,2,3,3a,4,9b-hexahydro-[1]-benzopyrano[3,4-c]pyrrol-2-yl)butyl]-8-chloro-pyrido[2',3':4,5]thieno[3,2-d]pyrimidine-2,4(1H,3H)-dione hydrochloride] yielded a Ki [1] of 0.264 nM, a Ki (α-1a adrenoreceptor) of 0.069 nM and a Ki (α-1b adrenoreceptor) of 3.34 nM.
`COc1cccc2c1[C@@H]1CN(CCCCn3c(=O)[nH]c4c(sc5c(Cl)nccc54)c3=O)C[C@@H]1CO2` [Example 53, 3-[4-((3aR,9bR)-cis-9-Methoxy-1,2,3,3a,4,9b-hexahydro-[1]-benzopyrano[3,4-c]pyrrol-2-yl)butyl]-6-chloro-pyrido[4',3':4,5]thieno[3,2-d]pyrimidine-2,4(1H,3H)-dione] was tested, and the Ki [1] was 0.872 nM, the Ki (α-1a adrenoreceptor) was 0.037 nM and the Ki (α-1b adrenoreceptor) was 9.42 nM.
`COc1cnc2sc3c(=O)n(CCCCN4CC5COc6cccc(OC)c6[C@@H]5C4)c(=O)[nH]c3c2n1.Cl` (stereo in doubt) [Example 43, 3-[4-((3aS,9bR)-trans-9-Methoxy-1,2,3,3a,4,9b-hexahydro-[1]-benzopyrano[3,4-c]pyrrol-2-yl)butyl]-8-methoxy-pyrazino[2',3':4,5]thieno[3,2-d]pyrimidine-2,4(1H,3H)-dione hydrochloride] gave a Ki [1] of 0.114 nM, a Ki (α-1a adrenoreceptor) of 0.037 nM and a Ki (α-1b adrenoreceptor) of 1.49 nM.
In the case of `COc1cccc2c1[C@@H]1CN(CCCCn3c(=O)[nH]c4c(sc5ccnc(Cl)c54)c3=O)C[C@@H]1CO2` [Example 48, 3-[4-((3aR,9bR)-cis-9-Methoxy-1,2,3,3a,4,9b-hexahydro-[1]-benzopyrano[3,4-c]pyrrol-2-yl)butyl]-9-chloro-pyrido[3',4';4,5]thieno[3,2-d]pyrimidine-2,4(1H,3H)-dione hydrochloride], the Ki [1] is reported as 0.475 nM, the Ki (α-1a adrenoreceptor) is reported as 0.048 nM and the Ki (α-1b adrenoreceptor) is reported as 5.75 nM.
Work on `COc1cccc2c1[C@@H]1CCN(CCCCn3c(=O)[nH]c4c(sc5cccnc54)c3=O)C[C@H]1CO2` [Example 95, 3-[4-((4aS,10bR)-trans-10-Methoxy-1,3,4,4a,5,10b-hexahydro-2H-[1]-benzopyrano[3,4-c]pyrido-3-yl)butyl]-pyrido[2',3':4,5]thieno[3,2-d]pyrimidine-2.4(1H,3H)-dione dihydrochloride] yielded a Ki [1] of 8.83 nM, a Ki (α-1a adrenoreceptor) of 1.8 nM and a Ki (α-1b adrenoreceptor) of 21.6 nM.
`COc1cccc2c1[C@@H]1CN(CCCCn3c(=O)[nH]c4c(sc5nc(Cl)ccc54)c3=O)C[C@H]1CO2` [Example 47, 3-[4-((3aS,9bR)-trans-9-Methoxy-1,2,3,3a,4,9b-hexahydro-[1]-benzopyrano[3,4-c]pyrrol-2-yl)butyl]-7-chloro-pyrido[3',2':4,5]thieno[3,2-d]pyrimidine-2,4(1H,3H)-dione hydrochloride] gave a Ki [1] of 0.245 nM, a Ki (α-1a adrenoreceptor) of 0.038 nM and a Ki (α-1b adrenoreceptor) of 2.4 nM.
For `COc1cccc2c1[C@@H]1CCN(CCCCn3c(=O)[nH]c4c(sc5ncccc54)c3=O)C[C@H]1CO2` (racemic) [Example 85, 3-[4-((±)-trans-10-Methoxy-1,3,4,4a,5,10b-hexahydro-2H-[1]-benzopyrano[3,4-c]pyrido-3-yl)butyl]-pyrido[3',2':4,5]thieno[3,2-d]pyrimidine-2,4(1H,3H)-dione dihydrochloride], the Ki [1] was 0.419 nM, the Ki (α-1a adrenoreceptor) was 0.336 nM and the Ki (α-1b adrenoreceptor) was 1.89 nM.
`COc1cc2[nH]c(=O)n(CCCCN3C[C@@H]4COc5ccccc5[C@@H]4C3)c(=O)c2cc1OC` (racemic) [Example 81, 3-[4-((±1-cis-1,2,3,3a,4,9b-hexahydro-[1]-benzopyrano[3,4-c]pyrrol-2-yl)butyl]-6,7-dimethoxy-quinazoline-2,4(1H,3H)-dione hydrochloride] was tested, and the Ki [1] was 0.045 nM, the Ki (α-1a adrenoreceptor) was 0.052 nM and the Ki (α-1b adrenoreceptor) was 0.192 nM.
